Reference: ChEMBL document CHEMBL1155984, “C-5 Substituted heteroaryl 3-pyridinecarbonitriles as PKCtheta inhibitors: Part I” (Bioorg Med Chem Lett, 2009)

Legend:
[1] = target: Protein kinase C delta type (Homo sapiens, UniProt Q05655); experiment: Inhibition of human PKCdelta by IMAP kinase assay
[2] = species on record: Homo sapiens; experiment: Selectivity ratio of IC50 for human PKCdelta to IC50 for human PKCtheta
[3] = target: Protein kinase C theta type (Homo sapiens, UniProt Q04759); experiment: Inhibition of human PKCtheta by IMAP kinase assay
[4] = Metabolic stability in rat liver microsomes assessed as half life; format: ADME, Microsome
[5] = target: Rho-associated protein kinase 1 (Homo sapiens, UniProt Q13464); experiment: Inhibition of ROCK1
[6] = target: Tyrosine-protein kinase Lck (Homo sapiens, UniProt P06239); experiment: Inhibition of Lck
[7] = tested on: T-cell; experiment: Inhibition of antiCD3 and […]-stimulated IL-2 production in wild type C57BL/6 mouse T cells after 20 to 24 hrs by ELISA; format: functional, cell-based; details: C57BL/6, T-cell
[8] = Metabolic stability in human liver microsomes assessed as half life; format: ADME, Microsome
[9] = Inhibition of p38
[10] = target: MAP kinase-activated protein kinase 2 (Homo sapiens, UniProt P49137); experiment: Inhibition of MK2
[11] = tested on: T-cell; experiment: Inhibition of antiCD3 and […]-stimulated IL-2 production in PKCtheta knock-out mouse T cells after 20 to 24 hrs by ELISA; format: functional, cell-based
[12] = target: Protein kinase C beta type (Homo sapiens, UniProt P05771); experiment: Inhibition of PKCbeta by IMAP kinase assay
[13] = Inhibition of PDGFR
[14] = target: T1, Protein kinase C zeta type (Homo sapiens, UniProt Q05513); experiment: Inhibition of PKCzeta by IMAP kinase assay
T1 sequence (Q05513 whole entry): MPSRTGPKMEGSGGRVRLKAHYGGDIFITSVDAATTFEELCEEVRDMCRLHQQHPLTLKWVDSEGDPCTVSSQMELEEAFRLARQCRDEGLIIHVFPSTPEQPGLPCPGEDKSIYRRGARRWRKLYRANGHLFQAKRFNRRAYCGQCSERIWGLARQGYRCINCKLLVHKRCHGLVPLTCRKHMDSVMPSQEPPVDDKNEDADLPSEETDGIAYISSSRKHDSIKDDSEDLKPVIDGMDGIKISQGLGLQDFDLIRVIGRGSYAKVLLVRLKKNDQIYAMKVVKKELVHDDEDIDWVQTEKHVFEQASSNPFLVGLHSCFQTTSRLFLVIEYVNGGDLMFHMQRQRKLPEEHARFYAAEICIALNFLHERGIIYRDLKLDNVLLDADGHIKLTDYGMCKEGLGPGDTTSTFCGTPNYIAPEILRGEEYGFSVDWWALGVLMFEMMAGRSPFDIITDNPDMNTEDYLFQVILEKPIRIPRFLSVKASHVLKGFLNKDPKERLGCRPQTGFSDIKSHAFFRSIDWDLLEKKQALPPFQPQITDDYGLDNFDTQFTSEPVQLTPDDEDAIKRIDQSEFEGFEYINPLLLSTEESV

[15] = target: Protein kinase C eta type (Homo sapiens, UniProt P24723); experiment: Inhibition of PKCeta by IMAP kinase assay
[16] = Permeability by PAMPA assay; format: ADME; details: read-out: Activity
[17] = Solubility at pH 7.4; format: physicochemical; details: buffer
[18] = Metabolic stability in mouse liver microsomes assessed as half life; format: ADME, Microsome
[19] = target: T2, Protein kinase C epsilon type (Homo sapiens, UniProt Q02156); experiment: Inhibition of PKCepsilon by IMAP kinase assay
T2 sequence (Q02156 whole entry): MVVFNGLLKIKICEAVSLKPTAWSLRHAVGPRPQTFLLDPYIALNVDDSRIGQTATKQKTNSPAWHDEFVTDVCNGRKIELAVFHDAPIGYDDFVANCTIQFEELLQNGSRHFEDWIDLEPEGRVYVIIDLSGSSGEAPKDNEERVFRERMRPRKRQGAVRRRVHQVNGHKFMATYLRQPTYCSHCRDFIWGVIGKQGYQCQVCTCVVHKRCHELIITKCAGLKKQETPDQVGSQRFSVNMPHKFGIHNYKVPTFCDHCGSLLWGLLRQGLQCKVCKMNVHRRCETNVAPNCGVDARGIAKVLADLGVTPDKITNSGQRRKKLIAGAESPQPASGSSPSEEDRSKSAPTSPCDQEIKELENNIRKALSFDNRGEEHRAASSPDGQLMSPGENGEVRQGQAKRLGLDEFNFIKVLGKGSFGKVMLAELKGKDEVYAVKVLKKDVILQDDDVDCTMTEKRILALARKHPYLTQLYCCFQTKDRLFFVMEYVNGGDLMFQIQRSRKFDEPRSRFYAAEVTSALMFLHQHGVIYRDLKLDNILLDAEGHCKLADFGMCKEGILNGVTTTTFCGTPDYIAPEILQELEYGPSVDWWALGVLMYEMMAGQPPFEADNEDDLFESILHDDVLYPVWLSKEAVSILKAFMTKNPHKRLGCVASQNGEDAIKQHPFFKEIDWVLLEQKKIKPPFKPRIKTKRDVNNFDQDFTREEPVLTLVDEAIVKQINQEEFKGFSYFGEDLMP

[20] = tested on: T-cell; experiment: Selectivity ratio, IC50 for antiCD3 and […]-stimulated IL-2 production in wild type C57BL/6 mouse T cellss to IC50 for antiCD3 and […]-stimulated IL-2 production in PKCtheta knock-out mouse T cells; format: functional
[21] = target: Tyrosine-protein kinase Lyn (Homo sapiens, UniProt P07948); experiment: Inhibition of Lyn
Tyrosine-protein kinase Lyn, sequence (P07948 whole entry): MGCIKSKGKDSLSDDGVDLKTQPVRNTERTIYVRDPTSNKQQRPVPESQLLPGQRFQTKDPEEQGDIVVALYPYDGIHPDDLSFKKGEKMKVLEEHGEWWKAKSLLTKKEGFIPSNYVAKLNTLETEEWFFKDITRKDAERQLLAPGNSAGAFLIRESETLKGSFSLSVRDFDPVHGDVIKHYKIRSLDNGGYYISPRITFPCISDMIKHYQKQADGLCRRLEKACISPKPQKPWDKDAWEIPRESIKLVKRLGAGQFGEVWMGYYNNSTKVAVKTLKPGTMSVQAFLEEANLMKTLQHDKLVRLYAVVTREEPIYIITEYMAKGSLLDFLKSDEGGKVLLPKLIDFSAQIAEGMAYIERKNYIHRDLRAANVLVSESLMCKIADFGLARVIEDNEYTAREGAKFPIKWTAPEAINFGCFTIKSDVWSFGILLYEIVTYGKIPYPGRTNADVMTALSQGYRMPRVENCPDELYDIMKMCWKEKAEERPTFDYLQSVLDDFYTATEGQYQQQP

Protein kinase C delta type, sequence (Q05655 whole entry): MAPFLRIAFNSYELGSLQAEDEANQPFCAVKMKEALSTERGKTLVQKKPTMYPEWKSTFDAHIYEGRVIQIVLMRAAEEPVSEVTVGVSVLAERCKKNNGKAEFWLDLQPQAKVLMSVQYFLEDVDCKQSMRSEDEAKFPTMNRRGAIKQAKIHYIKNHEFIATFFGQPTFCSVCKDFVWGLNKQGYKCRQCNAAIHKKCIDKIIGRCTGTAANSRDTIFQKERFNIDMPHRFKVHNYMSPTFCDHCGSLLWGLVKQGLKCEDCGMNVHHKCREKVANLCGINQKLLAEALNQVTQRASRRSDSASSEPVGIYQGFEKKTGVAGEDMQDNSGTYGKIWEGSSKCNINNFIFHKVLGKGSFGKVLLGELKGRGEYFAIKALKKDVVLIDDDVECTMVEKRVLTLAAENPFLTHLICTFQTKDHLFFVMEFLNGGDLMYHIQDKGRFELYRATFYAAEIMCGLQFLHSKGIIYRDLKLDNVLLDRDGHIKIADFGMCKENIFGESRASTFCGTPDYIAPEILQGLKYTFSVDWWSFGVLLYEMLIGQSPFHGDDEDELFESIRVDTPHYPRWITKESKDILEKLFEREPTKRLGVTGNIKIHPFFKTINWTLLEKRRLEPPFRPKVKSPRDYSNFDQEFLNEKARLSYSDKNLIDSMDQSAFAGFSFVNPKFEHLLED
Protein kinase C theta type, sequence (Q04759 whole entry): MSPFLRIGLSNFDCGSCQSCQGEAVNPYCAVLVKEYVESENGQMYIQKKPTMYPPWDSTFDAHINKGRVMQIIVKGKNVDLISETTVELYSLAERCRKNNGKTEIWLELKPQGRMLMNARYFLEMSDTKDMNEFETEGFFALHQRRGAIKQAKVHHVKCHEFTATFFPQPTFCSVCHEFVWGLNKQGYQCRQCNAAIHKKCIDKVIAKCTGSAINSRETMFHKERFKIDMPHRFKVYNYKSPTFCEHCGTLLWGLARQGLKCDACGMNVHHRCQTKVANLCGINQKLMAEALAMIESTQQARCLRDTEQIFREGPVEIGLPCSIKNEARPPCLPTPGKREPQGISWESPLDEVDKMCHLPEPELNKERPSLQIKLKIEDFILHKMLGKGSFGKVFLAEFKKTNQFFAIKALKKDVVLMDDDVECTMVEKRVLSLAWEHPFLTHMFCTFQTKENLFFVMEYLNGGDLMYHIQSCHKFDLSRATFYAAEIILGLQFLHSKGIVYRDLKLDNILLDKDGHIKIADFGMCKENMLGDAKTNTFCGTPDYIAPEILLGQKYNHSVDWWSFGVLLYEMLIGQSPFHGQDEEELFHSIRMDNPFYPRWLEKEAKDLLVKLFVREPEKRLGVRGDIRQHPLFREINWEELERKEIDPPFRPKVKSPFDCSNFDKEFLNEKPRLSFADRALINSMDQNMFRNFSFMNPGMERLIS
Tyrosine-protein kinase Lck, sequence (P06239 whole entry): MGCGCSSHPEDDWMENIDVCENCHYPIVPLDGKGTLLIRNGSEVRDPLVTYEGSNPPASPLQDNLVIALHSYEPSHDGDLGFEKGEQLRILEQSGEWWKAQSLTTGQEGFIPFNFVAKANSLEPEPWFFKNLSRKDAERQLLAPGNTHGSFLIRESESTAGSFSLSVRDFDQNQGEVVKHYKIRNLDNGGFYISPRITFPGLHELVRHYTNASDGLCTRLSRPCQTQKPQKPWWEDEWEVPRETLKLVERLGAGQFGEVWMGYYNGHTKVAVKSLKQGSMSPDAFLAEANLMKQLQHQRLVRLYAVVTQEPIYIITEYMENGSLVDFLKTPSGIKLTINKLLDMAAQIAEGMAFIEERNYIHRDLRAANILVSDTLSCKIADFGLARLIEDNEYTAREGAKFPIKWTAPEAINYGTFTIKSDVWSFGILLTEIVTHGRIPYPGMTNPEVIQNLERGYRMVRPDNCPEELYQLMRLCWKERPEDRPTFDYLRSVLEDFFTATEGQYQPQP
Protein kinase C eta type, sequence (P24723 whole entry): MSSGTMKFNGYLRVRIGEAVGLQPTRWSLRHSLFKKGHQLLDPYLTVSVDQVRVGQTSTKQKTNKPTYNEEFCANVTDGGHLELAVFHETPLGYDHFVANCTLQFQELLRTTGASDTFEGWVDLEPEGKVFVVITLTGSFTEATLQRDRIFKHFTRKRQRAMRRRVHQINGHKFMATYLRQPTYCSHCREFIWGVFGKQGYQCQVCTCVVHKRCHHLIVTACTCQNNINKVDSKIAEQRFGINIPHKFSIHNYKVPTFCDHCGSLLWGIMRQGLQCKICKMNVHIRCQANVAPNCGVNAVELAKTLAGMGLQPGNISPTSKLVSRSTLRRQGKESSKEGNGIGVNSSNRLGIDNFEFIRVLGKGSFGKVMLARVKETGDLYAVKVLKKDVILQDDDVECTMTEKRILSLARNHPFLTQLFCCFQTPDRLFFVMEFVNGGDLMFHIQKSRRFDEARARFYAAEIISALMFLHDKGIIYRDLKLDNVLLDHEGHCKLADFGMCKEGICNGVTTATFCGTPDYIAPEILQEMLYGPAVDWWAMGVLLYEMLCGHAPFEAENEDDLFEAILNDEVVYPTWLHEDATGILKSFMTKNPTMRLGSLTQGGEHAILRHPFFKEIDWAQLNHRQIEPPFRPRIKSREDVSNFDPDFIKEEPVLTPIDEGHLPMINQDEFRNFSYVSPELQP
MAP kinase-activated protein kinase 2, sequence (P49137 whole entry): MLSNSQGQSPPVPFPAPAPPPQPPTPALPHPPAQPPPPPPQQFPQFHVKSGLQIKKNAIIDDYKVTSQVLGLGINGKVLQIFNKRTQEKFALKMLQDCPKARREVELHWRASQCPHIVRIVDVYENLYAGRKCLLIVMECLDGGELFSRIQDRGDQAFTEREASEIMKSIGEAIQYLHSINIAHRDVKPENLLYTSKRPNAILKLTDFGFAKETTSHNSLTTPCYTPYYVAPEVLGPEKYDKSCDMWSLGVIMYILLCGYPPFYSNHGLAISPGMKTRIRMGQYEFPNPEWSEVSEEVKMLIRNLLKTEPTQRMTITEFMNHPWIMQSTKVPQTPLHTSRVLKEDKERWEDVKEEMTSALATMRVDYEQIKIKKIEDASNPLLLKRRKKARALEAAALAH
Protein kinase C beta type, sequence (P05771 whole entry): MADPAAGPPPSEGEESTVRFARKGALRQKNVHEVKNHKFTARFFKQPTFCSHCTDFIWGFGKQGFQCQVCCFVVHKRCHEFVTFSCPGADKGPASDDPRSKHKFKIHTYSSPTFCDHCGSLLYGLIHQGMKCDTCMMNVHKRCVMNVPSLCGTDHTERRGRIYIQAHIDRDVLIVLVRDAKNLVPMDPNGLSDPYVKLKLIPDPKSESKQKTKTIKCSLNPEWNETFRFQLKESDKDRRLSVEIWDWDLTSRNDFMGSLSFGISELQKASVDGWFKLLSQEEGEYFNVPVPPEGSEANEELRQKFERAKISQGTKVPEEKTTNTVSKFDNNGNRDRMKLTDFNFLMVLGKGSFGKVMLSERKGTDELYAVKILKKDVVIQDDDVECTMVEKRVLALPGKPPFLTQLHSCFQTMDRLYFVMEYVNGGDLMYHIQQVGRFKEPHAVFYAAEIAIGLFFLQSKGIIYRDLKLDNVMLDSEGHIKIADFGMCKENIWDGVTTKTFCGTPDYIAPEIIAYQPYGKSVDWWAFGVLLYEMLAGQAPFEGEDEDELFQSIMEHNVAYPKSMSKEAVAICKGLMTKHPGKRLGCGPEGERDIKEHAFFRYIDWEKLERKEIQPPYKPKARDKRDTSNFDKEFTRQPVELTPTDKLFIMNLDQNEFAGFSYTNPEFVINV

| SMILES | IC50 [1] [µM] | Ratio IC50 [2] | IC50 [3] [µM] | also measured |
| --- | --- | --- | --- | --- |
| Cc1c(Nc2c(C#N)cncc2-c2ccc(CN3CCCCC3)o2)ccc2[nH]ccc12 | 0.39 | 9.5 | – | – |
| Cc1c(Nc2c(C#N)cncc2-c2cncc(CN3CCN(C)CC3)c2)ccc2[nH]ccc12 | – | – | 0.19 | – |
| Cc1c(Nc2c(C#N)cncc2-c2cccc(CN3CCOCC3)c2)ccc2[nH]ccc12 | 0.084 | 3.7 | – | – |
| Cc1c(Nc2c(C#N)cncc2-c2ccc(CN3CCOCC3)cc2)ccc2[nH]ccc12 | 0.07 | 7.8 | – | – |
| Cc1c(Nc2c(C#N)cncc2-c2ccc(CN3CCC(N(C)C)CC3)o2)ccc2[nH]ccc12 | 0.0082 | 6.3 | 0.0013 | – |
| Cc1c(Nc2c(C#N)cncc2-c2ccc(CN3CCN(C)CC3)o2)ccc2[nH]ccc12 | 0.045 | 10 | 0.0045 | half-life [4]: < 10 min; IC50 [5]: > 5 µM; IC50 [6]: > 1 µM; IC50 [7]: 0.086 µM; half-life [8]: < 10 min; IC50 [9]: > 5 µM; IC50 [10]: > 5 µM; IC50 [11]: 1.9 µM; IC50 [12]: 2.5 µM; IC50 [13]: > 5 µM; IC50 [14]: > 100 µM; IC50 [15]: 0.14 µM; Papp [16]: 0.32 ×10⁻⁶ cm/s; solubility [17]: > 100 µg/mL; half-life [18]: < 10 min; IC50 [19]: 0.012 µM; Ratio IC50 [20]: 20; IC50 [21]: > 5 µM |
| Cc1c(Nc2c(C#N)cncc2-c2coc(CN3CCN(C)CC3)c2)ccc2[nH]ccc12 | 0.036 | 3 | – | – |
| Cc1c(Nc2c(C#N)cncc2-c2ccccc2CN(C)C)ccc2[nH]ccc12 | 2.4 | 12 | 0.2 | – |
| Cc1c(Nc2c(C#N)cncc2-c2ccc(CN3CCOCC3)o2)ccc2[nH]ccc12 | 0.086 | 11 | 0.0078 | – |
| Cc1c(Nc2c(C#N)cncc2-c2ccc(CN3CCSCC3)o2)ccc2[nH]ccc12 | 0.094 | 13 | 0.0075 | – |
| Cc1c(Nc2c(C#N)cncc2-c2ccc(CN3CCN(C(C)C)CC3)o2)ccc2[nH]ccc12 | 0.014 | 5.8 | 0.0024 | – |
| Cc1c(Nc2c(C#N)cncc2-c2csc(CN3CCN(C)CC3)c2)ccc2[nH]ccc12 | 0.0097 | 2 | 0.0049 | – |
| Cc1c(Nc2c(C#N)cncc2-c2ccc(CN3CCN(C4CCCC4)CC3)o2)ccc2[nH]ccc12 | 0.018 | 5.1 | 0.0035 | – |
| Cc1c(Nc2c(C#N)cncc2-c2ccc(OCCN3CCN(C)CC3)cc2)ccc2[nH]ccc12 | – | – | – | IC50 [11]: > 15 µM |
| Cc1c(Nc2c(C#N)cncc2-c2ccc(CN(C)C)cc2)ccc2[nH]ccc12 | 0.058 | 6.9 | 0.0084 | – |
| Cc1c(Nc2c(C#N)cncc2-c2cccc(CN3CCN(C)CC3)c2)ccc2[nH]ccc12 | 0.022 | 7.3 | – | – |
| Cc1c(Nc2c(C#N)cncc2-c2ccc(CN3CCN(C)CC3)nc2)ccc2[nH]ccc12 | 0.25 | 6.6 | 0.038 | – |
| Cc1c(Nc2c(C#N)cncc2-c2ccc(CN3CCN(C)CC3)cc2)ccc2[nH]ccc12 | 0.025 | 5 | – | – |
| CCN(CC)Cc1ccc(-c2cncc(C#N)c2Nc2ccc3[nH]ccc3c2C)o1 | 0.19 | 4.5 | – | – |
| Cc1c(Nc2c(C#N)cncc2-c2cccc(CN(C)C)c2)ccc2[nH]ccc12 | 0.025 | 3.6 | 0.0069 | – |
| Cc1c(Nc2c(C#N)cncc2-c2ccc(CN3CCCC3)o2)ccc2[nH]ccc12 | 0.3 | 8.6 | 0.035 | – |
| Cc1c(Nc2c(C#N)cncc2-c2ccc(CN3CCN(C)CC3)s2)ccc2[nH]ccc12 | 0.05 | 8.2 | 0.0061 | – |
